Data on 1 compound can be found in publication PMC8152814, “The modulatory role of sulfated and non-sulfated small molecule heparan sulfate-glycomimetics in endothelial dysfunction: absolute structural clarification, molecular docking and simulated dynamics, SAR analyses and ADMET studies” (RSC Medicinal Chemistry, 2021).

Structures are written as SMILES.

By half-life is commonly meant the time needed for the level to fall by half in the phase considered.

This series in a line: in vitro. The settings on record: mouse, microsomes, pH 7.4.

Protocol: MLM assay (controls: diphenhydramine and diazepam). hERG assay (controls: quinidine and dimethylsulfoxide).
Microsomal Metabolic Stability
Pooled liver microsomes (final protein concentration 0.5 mg/mL), 0.1 M phosphate buffer pH
7.4 and test compound (final substrate concentration 3 µM; final DMSO concentration 0.25 %)
are pre-incubated at 37 °C prior to the addition of NADPH (final concentration 1 mM) to initiate
the reaction. The final incubation volume is 50 µL. A minus cofactor control incubation is
included for each compound tested where 0.1 M phosphate buffer pH 7.4 is added instead of
NADPH (minus NADPH). Two control compounds are included with each species. All incubations are performed singularly for each test compound. Each compound is incubated for 0, 5, 15, 30 and 45 min. The control (minus NADPH) is incubated for 45 min. The reactions
are stopped by transferring 20 µL of incubate to 60 µL methanol at the appropriate time points.
The termination plates are centrifuged at 2,500 rpm for 20 min at 4 °C to precipitate the protein.
Following protein precipitation, the sample supernatants are combined in cassettes of up to 4
compounds, internal standard is added and samples analysed using Cyprotex generic
LC-MS/MS conditions. From a plot of ln peak area ratio (compound peak area /internal
standard peak area) against time, the gradient of the line is determined. Subsequently, half-
life and intrinsic clearance are calculated using the equations below:
Elimination rate constant (k) = (- gradient)
Intrinsic clearance (CLint)(µL/min/mg protein) = where V = Incubation volume (µL)/Microsomal protein (mg)
Relevant control compounds are assessed, ensuring intrinsic clearance values fall within the
specified limits (if available).

For the compound `COC(=O)c1cc(OC[C@@H](COS(=O)(=O)[O-])OS(=O)(=O)[O-])ccc1OCCCCOS(=O)(=O)[O-].[Na+].[Na+].[Na+]` [Compound S-10, sodium (S)-3-(3-(methoxycarbonyl)-4-(4-(sulfonatooxy)butoxy)phenoxy)propane-1,2-diyl bis(sulfate)], the half-life at 0.75 h, 3 µM worked out at 69.3 h.
